Source: patent publication US9765075B2, “Substituted bridged urea analogs as sirtuin modulators” (GLAXOSMITHKLINE LLC, priority 2013, dated 2017)

Tests used:
SIRT1 = target: T1, SIRT1 (Homo sapiens, UniProt Q96EB6); assay: Trp mass spectrometry assay (SIRT1 activation); type: biochemical; conditions: Trp mass spectrometry assay; for Tryp AVG EC1.5 (μM): EC1.5 = concentration giving 150% activation of SIRT1; for Emax: percent maximum fold activation of SIRT1, read-out: Tryp % Fold Act
T1 sequence (Q96EB6 1-747): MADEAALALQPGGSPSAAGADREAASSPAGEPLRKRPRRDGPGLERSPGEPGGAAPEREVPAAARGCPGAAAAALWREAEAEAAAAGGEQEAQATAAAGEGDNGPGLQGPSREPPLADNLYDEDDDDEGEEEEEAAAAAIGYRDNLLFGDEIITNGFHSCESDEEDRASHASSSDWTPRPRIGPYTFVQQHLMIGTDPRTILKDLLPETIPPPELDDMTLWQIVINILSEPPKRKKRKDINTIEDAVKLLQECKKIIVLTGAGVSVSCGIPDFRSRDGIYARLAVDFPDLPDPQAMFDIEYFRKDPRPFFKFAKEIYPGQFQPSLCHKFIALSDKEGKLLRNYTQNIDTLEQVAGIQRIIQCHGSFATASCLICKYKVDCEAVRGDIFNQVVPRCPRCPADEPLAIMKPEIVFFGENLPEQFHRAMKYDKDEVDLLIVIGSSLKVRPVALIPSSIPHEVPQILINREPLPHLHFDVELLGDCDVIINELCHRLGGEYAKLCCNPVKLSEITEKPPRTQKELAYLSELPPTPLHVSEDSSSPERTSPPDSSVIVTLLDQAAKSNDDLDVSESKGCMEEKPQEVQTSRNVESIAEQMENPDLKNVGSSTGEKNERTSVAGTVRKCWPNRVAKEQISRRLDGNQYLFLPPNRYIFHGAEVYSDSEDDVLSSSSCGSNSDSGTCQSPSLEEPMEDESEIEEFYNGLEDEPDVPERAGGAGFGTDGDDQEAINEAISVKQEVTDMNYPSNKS
Summary of the method: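 Activation is expressed as EC1.5, the concentration raising activity 50% above DMSO control, and as maximum percent of control. Mass-spec readout was OAADPR or deacetylated Trp peptide after a formic-acid-quenched 25-min, 25 °C reaction: 10 nM bacterially expressed His-SIRT1, 0.5 μM acetyl-p53-derived peptide, 120 μM NAD+, pH 7.5 HEPES with […].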

mini-hSIRT1 = assay: Inhibition of mini-hSIRT1 constructs compared with the full-length enzyme; type: biochemical, human
Protocol: Final concentrations of the PNC1/GDH coupling system components used were 20 units/mL bovine GDH (Sigma-Aldrich), 1 uM yeast PNC1, 3.4 mM α-ketoglutarate, and 220 μM NADH or NADPH. An extinction coefficient of 6.22 mM^−1 cm^−1 and a pathlength of 0.81 cm was used to convert the absorbance at 340 nm to product concentration for the 150 uL reactions used. […] Quenched reactions were diluted 5-fold with 1:1 acetonitrile:methanol and spun at 5,000×g for 10 minutes to precipitate protein before being analyzed with an Agilent RapidFire 200 High-Throughput Mass Spectrometry System (Agilent, Wakefield, Mass.) coupled to an ABSciex API 4000 mass spectrometer fitted with an electrospray ionization source. The p53-based Ac-p53(W5) (Ac-RHKK^AcW-NH2) and FOXO-3a 21-mer (Ac-[…]^Ac[…]-NH2) peptides were obtained from Biopeptide, Inc. Deacetylation assays used the Ac-p53(W5) substrate unless otherwise noted.
Substrate KM determinations were performed by varying one substrate concentration at a fixed, saturating concentration of the second substrate. SIRT1 activation and inhibition assays were run in reaction buffer with 0.05% BSA at 25° C. and analyzed using the OAcADPr assay. Enzyme and compound were pre-incubated for 20 minutes before addition of substrates. […]

| Compound | Tryp AVG EC1.5 (μM) (SIRT1) | Emax (SIRT1) [%] | IC50 values, mini-hSIRT1 constructs versus full-length enzyme (mini-hSIRT1) |
| --- | --- | --- | --- |
| [N-]=[N+]=NCC(=O)NCc1ccc(NC(=O)N2c3nc(-c4cccc(C(F)(F)F)c4)ccc3N3CC[C@H]2C3)cc1 [Example 799] | A (EC1.5<1 μM) | ≥ 150 | – |
| C#CCOc1cc(-c2ccc3c(n2)N(C(=O)Nc2cccc(C4(C(F)(F)F)N=N4)c2)[C@H]2CCN3C2)cc(C(F)(F)F)c1 [Example 800] | C (EC1.5>25 μM) | < 150 | – |
| C#CCOc1cccc(NC(=O)N2c3nc(-c4ccc(C5(C(F)(F)F)N=N5)cc4)ccc3N3CC[C@H]2C3)c1 [Example 802] | B (EC1.5 1-25 μM) | ≥ 150 | – |
| C#Cc1ccc(NC(=O)N2c3nc(-c4cccc(C5(C(F)(F)F)N=N5)c4)ccc3N3CC[C@H]2C3)nc1 [Example 803] | A (EC1.5<1 μM) | ≥ 150 | – |
| C#CCNc1nccc(NC(=O)N2c3nc(-c4cccc(C5(C(F)(F)F)N=N5)c4)ccc3N3CC[C@H]2C3)n1 [Example 804] | A (EC1.5<1 μM) | ≥ 150 | – |
| C#CCNc1nccc(NC(=O)N2c3nc(-c4ccc(C5(C(F)(F)F)N=N5)cc4)ccc3N3CC[C@H]2C3)n1 [Example 805] | B (EC1.5 1-25 μM) | ≥ 150 | – |
| [N-]=[N+]=NCc1cc(N=[N+]=[N-])cc(-c2ccc3c(n2)N(C(=O)Nc2ccc(F)cn2)[C@H]2CCN3C2)c1 [Example 806] | A (EC1.5<1 μM) | ≥ 150 | – |
| C#Cc1ccc(NC(=O)N2c3nc(-c4ccc(C5(C(F)(F)F)N=N5)cc4)ccc3N3CC[C@H]2C3)nc1 [Example 807] | C (EC1.5>25 μM) | < 150 | – |
| NC(=O)c1cccnc1 [NAM, nicotinamide] | – | – | comparable |

Second part, led by results:

| Tryp AVG EC1.5 (μM) (SIRT1) | Emax (SIRT1) [%] | Compound | IC50 values, mini-hSIRT1 constructs versus full-length enzyme (mini-hSIRT1) |
| --- | --- | --- | --- |
| A (EC1.5<1 μM) | ≥ 150 | [N-]=[N+]=NCc1cc(N=[N+]=[N-])cc(-c2ccc3c(n2)N(C(=O)Nc2cnccn2)[C@H]2CCN3C2)c1 [Example 808] | – |
| B (EC1.5 1-25 μM) | ≥ 150 | C#CCNc1nccc(NC(=O)N2c3nc(-c4cccc(C5(C(F)(F)F)N=N5)c4)ccc3N3CC[C@H]2C3)n1 [Example 809] | – |
| A (EC1.5<1 μM) | ≥ 150 | O=C(Nc1ccncc1)N1c2nc(-c3cccc(C(F)(F)F)c3)ccc2N2CC[C@H]1C2 [Example 817] | – |
| A (EC1.5<1 μM) | ≥ 150 | O=C(Nc1cccc(OC[C@H](O)CO)n1)N1c2nc(-c3cccc(C(F)(F)F)c3)ccc2N2CC[C@H]1C2 [Example 818] | – |
| A (EC1.5<1 μM) | ≥ 150 | O=C(Nc1ccccn1)N1c2nc(-c3cccc(C(F)(F)F)c3)ccc2N2CCC[C@H]1C2 [Example 820] | – |
| A (EC1.5<1 μM) | ≥ 150 | O=C(Nc1ccncc1)N1c2nc(-c3cccc(C(F)(F)F)c3)ccc2N2CCC[C@H]1C2 [Example 821] | – |
| A (EC1.5<1 μM) | ≥ 150 | O=C(Nc1cccnn1)N1c2nc(-c3cccc(Cl)c3)ccc2N2CC[C@H]1C2 [Example 822] | – |
| A (EC1.5<1 μM) | ≥ 150 | O=C(Nc1ccccn1)N1c2nc(-c3cccc(C(F)(F)F)c3)ccc2N2CC[C@@H]1C2 [Example 823] | – |
| A (EC1.5<1 μM) | ≥ 150 | O=C(Nc1ccncc1)N1c2nc(-c3cccc(C(F)(F)F)c3)ccc2N2CC[C@@H]1C2 [Example 824] | – |
